# Measured values as given in ChEMBL document CHEMBL3351804, “Development of 2-aryl substituted quinazolin-4(3H)-one, pyrido[4,3-d]pyrimidin-4(3H)-one and pyrido[2,3-d]pyrimidin-4(3H)-one derivatives as microsomal prostaglandin E(2) synthase-1 inhibitors” (Bioorg Med Chem Lett, 2014).
# Legend:
# Prostaglandin E synthase [1] = molecular target: T1, Prostaglandin E synthase (Homo sapiens, UniProt O14684); assay: Inhibition of human recombinant mPGES-1 expressed in CHO cells using PGH2 as substrate incubated for 10 mins prior to substrate addition measured after 1 min
# T1 sequence (O14684 whole entry): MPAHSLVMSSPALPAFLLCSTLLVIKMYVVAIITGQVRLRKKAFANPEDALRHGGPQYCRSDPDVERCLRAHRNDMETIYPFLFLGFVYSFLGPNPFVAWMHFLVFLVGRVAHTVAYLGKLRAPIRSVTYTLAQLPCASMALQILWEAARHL
# Prostaglandin E synthase [2] = molecular target: T1, Prostaglandin E synthase; assay: Inhibition of mPGES-1 in human A549 cells assessed as inhibition of IL-1beta-induced PGE2 production incubated for 30 mins prior to IL-1beta challenge measured after 18 to 24 hrs; format: cell-based
# [3] = molecular target: T2, Prostaglandin E synthase (Homo sapiens) (UniProt O14684); assay: Inhibition of human recombinant mPGES-1 expressed in CHO cells using PGH2 as substrate at 1 uM incubated for 10 mins prior to substrate addition measured after 1 min
# T2 sequence (whole entry): T1 sequence (O14684 whole entry)
# [4] = molecular target: T2, Prostaglandin E synthase (Homo sapiens); assay: Inhibition of human recombinant mPGES-1 expressed in CHO cells using PGH2 as substrate at 10 uM incubated for 10 mins prior to substrate addition measured after 1 min; format: cell-based
# Prostaglandin E synthase [5] = molecular target: T1, Prostaglandin E synthase; assay: Inhibition of mPGES-1 in human A549 cells assessed as inhibition of IL-1beta-induced PGE2 production incubated for 30 mins prior to IL-1beta challenge measured after 18 hrs by plate reader analysis; format: cell-based
# Prostaglandin E synthase [6] = molecular target: T1, Prostaglandin E synthase; assay: Inhibition of mPGES-1 in human whole blood assessed as inhibition of LPS-induced PGE2 production incubated for 30 mins prior to LPS challenge measured after 20 to 24 hrs by LC/MS/MS analysis
# [7] = Inhibition of guinea pig recombinant mPGES-1; design: species or system Cavia porcellus
# Prostaglandin E synthase [8] = molecular target: T1, Prostaglandin E synthase; assay: Inhibition of mPGES-1 in human whole blood assessed as inhibition of LPS-induced PGE2 production after overnight incubation
# Prostaglandin E synthase [9] = molecular target: T1, Prostaglandin E synthase; assay: Inhibition of human mPGES-1
# Prostaglandin E synthase [10] = molecular target: T1, Prostaglandin E synthase; assay: Inhibition of mPGES-1 in human A549 cells; format: cell-based
# Prostaglandin E synthase [11] = molecular target: T1, Prostaglandin E synthase; assay: Inhibition of mPGES-1 in human A549 cells using arachidonic acid as substrate assessed as inhibition of IL-1beta/TNF-alpha-induced PGE2 production incubated for 30 mins prior to substrate addition measured after 30 mins by EIA; format: cell-based
structure (smiles),measurement,setting,value
CC(C)C(=O)NCc1cnc(C(F)F)c(-c2nc3cc(-c4ccc(C(F)(F)F)cc4)ncc3c(=O)[nH]2)c1,IC50,Prostaglandin E synthase [1],4 nM
same,IC50,Prostaglandin E synthase [2],111 nM
CC(C)C(=O)NCc1ccc(Cl)c(-c2nc3cc(Cl)c(-c4ccncc4)cc3c(=O)[nH]2)c1,IC50,Prostaglandin E synthase [1],481 nM
CC(=O)O[C@@H]1CCN(c2cc3c(=O)[nH]c(-c4cc(CNC(=O)C(C)C)ccc4Cl)nc3cc2Cl)C1,IC50,Prostaglandin E synthase [1],248 nM
CC(C)C(=O)NCc1ccc(Cl)c(-c2nc3cc(Cl)c(N4CC(C(=O)NC(C)(C)C)C4)cc3c(=O)[nH]2)c1,IC50,Prostaglandin E synthase [1],59 nM
CC(C)C(=O)NCc1ccc(Cl)c(-c2nc3cc(Cl)c(N4CC[C@H](O)C4)cc3c(=O)[nH]2)c1,inhibition,[3],42%
same,inhibition,[4],91%
CC(C)C(=O)NCc1ccc(Cl)c(-c2nc3cc(-c4ccc(C(F)(F)F)nc4)ccc3c(=O)[nH]2)c1,IC50,Prostaglandin E synthase [1],16 nM
same,IC50,Prostaglandin E synthase [2],23 nM
CC(C)C(=O)NCc1ccc(Cl)c(-c2nc3cc(C4CC4)ccc3c(=O)[nH]2)c1,IC50,Prostaglandin E synthase [1],58 nM
CC(C)C(=O)NCc1ccc(Cl)c(-c2nc3cc(C(N)=O)ccc3c(=O)[nH]2)c1,inhibition,[3],14%
same,inhibition,[4],16%
Cc1nc(NC(=O)c2cc(CNC(=O)C(C)C)cnc2C(F)F)[nH]c1-c1ccc(C(F)(F)F)cc1,IC50,Prostaglandin E synthase [5],12 nM
same,IC50,Prostaglandin E synthase [6],12 nM
N#Cc1cccc(C#N)c1-c1nc2c3ccc(Cl)cc3c3ccccc3c2[nH]1,IC50,[7],0.9 nM
CC(C)C(=O)NCc1ccc(Cl)c(-c2nc3ccc(-c4ccc(C(F)(F)F)cc4)cc3c(=O)[nH]2)c1,IC50,Prostaglandin E synthase [1],55 nM
CC(C)C(=O)NCc1ccc(Cl)c(-c2nc3cc(NC(=O)C4CC4)ccc3c(=O)[nH]2)c1,inhibition,[3],21%
same,inhibition,[4],74%
CC(C)C(=O)NCc1ccc(Cl)c(-c2nc3nc(-c4ccc(C(F)(F)F)cc4)ccc3c(=O)[nH]2)c1,IC50,Prostaglandin E synthase [1],10 nM
same,IC50,Prostaglandin E synthase [2],11 nM
same,IC50,Prostaglandin E synthase [8],328 nM
CC(C)C(=O)NCc1ccc(Cl)c(-c2nc3cc(Cl)c(N4CCN(C)CC4)cc3c(=O)[nH]2)c1,inhibition,[3],41%
same,inhibition,[4],75%
CC(C)C(=O)NCc1ccc(Cl)c(-c2nc3cc(Cl)c(N4CCOCC4)cc3c(=O)[nH]2)c1,IC50,Prostaglandin E synthase [1],261 nM
CC(C)(C)C(=O)NCc1ccc(Cl)c(C(=O)Nc2ccnc3c(Nc4ccc(C(F)(F)F)cc4)nsc23)c1,IC50,Prostaglandin E synthase [1],3 nM
COCc1nc2c(C(=O)Nc3cccc(Cl)c3C)cc(NC(=O)c3c(Cl)cccc3C(F)(F)F)cc2[nH]1,IC50,Prostaglandin E synthase [9],0.1 nM
same,IC50,Prostaglandin E synthase [10],1.2 nM
CC(C)C(=O)NCc1ccc(Cl)c(-c2nc3cc(Cl)c(N4CCC(O)CC4)cc3c(=O)[nH]2)c1,IC50,Prostaglandin E synthase [1],713 nM
CC(C)C(=O)NCc1ccc(Cl)c(-c2nc3ccccc3c(=O)[nH]2)c1,inhibition,[3],17%
same,inhibition,[4],67%
CC(=O)O[C@H]1CCN(c2cc3c(=O)[nH]c(-c4cc(CNC(=O)C(C)C)ccc4Cl)nc3cc2Cl)C1,IC50,Prostaglandin E synthase [1],243 nM
O=C(Nc1ccc(C(F)(F)F)cn1)c1cccc(NC(=O)c2ccccc2C(F)(F)F)c1,IC50,Prostaglandin E synthase [11],500 nM
COc1cc2c(=O)[nH]c(-c3cc(CNC(=O)C(C)C)ccc3Cl)nc2cc1Cl,IC50,Prostaglandin E synthase [1],111 nM
CC(C)C(=O)NCc1ccc(Cl)c(-c2nc3cc(Cl)c(-c4ccc(C(F)(F)F)cc4)cc3c(=O)[nH]2)c1,IC50,Prostaglandin E synthase [1],36 nM
CC(C)C(=O)NCc1ccc(Cl)c(-c2nc3cc(Br)ccc3c(=O)[nH]2)c1,IC50,Prostaglandin E synthase [1],36 nM
CC(C)C(=O)NCc1ccc(Cl)c(-c2nc3cc(-c4ccc(C(F)(F)F)cc4)ccc3c(=O)[nH]2)c1,IC50,Prostaglandin E synthase [1],7 nM
same,IC50,Prostaglandin E synthase [2],10 nM
same,IC50,Prostaglandin E synthase [8],234 nM
CC(C)C(=O)NCc1ccc(Cl)c(-c2nc3cc(N)ccc3c(=O)[nH]2)c1,inhibition,[3],16%
same,inhibition,[4],70%
CC(C)(C)C(=O)NCc1ccc(Cl)c(C(=O)Nc2ccc3cnn(-c4ccc(C(F)(F)F)cc4)c(=O)c3c2)c1,IC50,Prostaglandin E synthase [1],5 nM
CC(C)C(=O)NCc1ccc(Cl)c(-c2nc3cc([N+](=O)[O-])ccc3c(=O)[nH]2)c1,IC50,Prostaglandin E synthase [1],63 nM
CC(C)C(=O)NCc1ccc(Cl)c(-c2nc3cc(Cl)c(C4CC4)cc3c(=O)[nH]2)c1,IC50,Prostaglandin E synthase [1],32 nM
CC(C)C(=O)NCc1ccc(Cl)c(-c2nc3cc(C(F)(F)F)ccc3c(=O)[nH]2)c1,IC50,Prostaglandin E synthase [1],26 nM
CC(C)C(=O)NCc1ccc(Cl)c(-c2nc3cc(Cl)c(N4CCNC(=O)C4)cc3c(=O)[nH]2)c1,inhibition,[3],30%
same,inhibition,[4],79%
CC(C)C(=O)NCc1ccc(Cl)c(-c2nc3cc(Cl)c(N4CC[C@@H](O)C4)cc3c(=O)[nH]2)c1,inhibition,[3],67%
same,inhibition,[4],95%
COc1ccc2c(=O)[nH]c(-c3cc(CNC(=O)C(C)C)ccc3Cl)nc2c1,IC50,Prostaglandin E synthase [1],304 nM
CC(C)C(=O)NCc1ccc(Cl)c(-c2nc3cc(Cl)c(N4CCC(C(F)F)CC4)cc3c(=O)[nH]2)c1,IC50,Prostaglandin E synthase [1],24 nM
O=C(Nc1ccc2cnn(-c3ccc(Br)cc3)c(=O)c2c1)c1c(F)cccc1Cl,IC50,Prostaglandin E synthase [1],179 nM
O=C(Nc1ccnc2c(Nc3ccc(C(F)(F)F)cc3)nsc12)c1c(F)cccc1Cl,IC50,Prostaglandin E synthase [1],157 nM
CNC(=O)C1CCN(c2cc3c(=O)[nH]c(-c4cc(CNC(=O)C(C)C)ccc4Cl)nc3cc2Cl)CC1,inhibition,[3],28%
same,inhibition,[4],76%
CC(C)C(=O)NCc1ccc(Cl)c(-c2nc3cc(Cl)ccc3c(=O)[nH]2)c1,IC50,Prostaglandin E synthase [1],42 nM
CC(C)C(=O)NCc1ccc(Cl)c(-c2nc3cc(F)ccc3c(=O)[nH]2)c1,inhibition,[3],52%
same,inhibition,[4],98%
CC(C)C(=O)NCc1cnc(C(F)F)c(-c2nc3cc(-c4ccc(C(F)(F)F)cc4)ccc3c(=O)[nH]2)c1,IC50,Prostaglandin E synthase [1],6 nM
same,IC50,Prostaglandin E synthase [2],33 nM
CC(C)C(=O)NCc1ccc(Cl)c(-c2nc3cc(N4CCC(C(F)(F)F)CC4)ccc3c(=O)[nH]2)c1,IC50,Prostaglandin E synthase [1],74 nM
